This experiment concerns the target T1, PPARγ (Homo sapiens, UniProt P37231).
T1 construct: gene PPARG; recombinant His-tagged PPARγ (pET10), wild type
T1 sequence (P37231 1-505): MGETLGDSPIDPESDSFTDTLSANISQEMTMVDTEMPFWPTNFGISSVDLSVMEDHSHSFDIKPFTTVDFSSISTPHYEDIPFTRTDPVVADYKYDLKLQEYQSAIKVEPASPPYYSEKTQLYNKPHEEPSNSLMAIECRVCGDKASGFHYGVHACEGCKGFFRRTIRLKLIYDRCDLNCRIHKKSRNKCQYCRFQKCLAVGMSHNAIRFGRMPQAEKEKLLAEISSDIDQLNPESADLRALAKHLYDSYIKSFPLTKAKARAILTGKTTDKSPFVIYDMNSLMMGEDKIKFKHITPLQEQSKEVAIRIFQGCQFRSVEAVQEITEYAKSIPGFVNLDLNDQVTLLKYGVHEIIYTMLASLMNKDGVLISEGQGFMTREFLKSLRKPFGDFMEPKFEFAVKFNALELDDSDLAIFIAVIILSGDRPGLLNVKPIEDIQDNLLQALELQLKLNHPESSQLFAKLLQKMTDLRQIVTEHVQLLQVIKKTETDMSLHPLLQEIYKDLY
Description: biolayer interferometry (Octet RED […]), Ni-NTA immobilised His-tagged protein. It is filed as binding. Background: In BLI a coated tip is dipped into the sample, and binding shifts an interference pattern.

A word on the Kd: it is the equilibrium constant for the complex coming apart. A lower Kd goes with higher affinity. For `Cc1nc(C)c(C)nc1C` [Ligustrazine], the affinity, expressed as Kd, was 39.4 µM.

For the origin of these results see publication PMC8930249, “Elucidating the Novel Mechanism of Ligustrazine in Preventing Postoperative Peritoneal Adhesion Formation” (Oxidative Medicine and Cellular Longevity, 2022).
